Values joined by “and” are separate entries in the source; they are usually repeats but may differ in a detail not shown here. Equal values may be shown once.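 Assay format: 96-well plates, 48-hour exposure. GI50 = concentration required for 50% inhibition of growth. TGI: total growth inhibition.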
Assays:
Experiment in all cases: growth of human tumour cells (NCI), 48 h
786-0 renal = tested on: 786-0 renal
A498 renal = tested on: A498 renal
A549 NSCLC = tested on: A549 NSCLC
ACHN renal = tested on: ACHN renal
BT-549 breast = tested on: BT-549 breast
CAKI-1 renal = tested on: CAKI-1 renal
CCRF-CEM leukemia = tested on: CCRF-CEM leukemia
COLO 205 colon = tested on: COLO 205 colon
DU-145 prostate = tested on: DU-145 prostate
EKVX NSCLC = tested on: EKVX NSCLC
HCC-2998 colon = tested on: HCC-2998 colon
HCT-116 colon = tested on: HCT-116 colon
HCT-15 colon = tested on: HCT-15 colon
HL-60(TB) leukemia = tested on: HL-60(TB) leukemia
HOP-62 NSCLC = tested on: HOP-62 NSCLC
HOP-92 NSCLC = tested on: HOP-92 NSCLC
HS 578T breast = tested on: HS 578T breast
HT29 colon = tested on: HT29 colon
IGROV1 ovarian = tested on: IGROV1 ovarian
K-562 leukemia = tested on: K-562 leukemia
KM12 colon = tested on: KM12 colon
LOX IMVI melanoma = tested on: LOX IMVI melanoma
M14 melanoma = tested on: M14 melanoma
MALME-3M melanoma = tested on: MALME-3M melanoma
MCF7 breast = tested on: MCF7 breast
MDA-MB-231 breast = tested on: MDA-MB-231 breast
MDA-MB-435 = tested on: MDA-MB-435
MOLT-4 leukemia = tested on: MOLT-4 leukemia
NCI-H226 lung = tested on: NCI-H226 lung
NCI-H23 lung = tested on: NCI-H23 lung
NCI-H460 lung = tested on: NCI-H460 lung
NCI-H522 lung = tested on: NCI-H522 lung
NCI/ADR-RES ovarian = tested on: NCI/ADR-RES ovarian
OVCAR-3 ovarian = tested on: OVCAR-3 ovarian
OVCAR-4 ovarian = tested on: OVCAR-4 ovarian
OVCAR-5 ovarian = tested on: OVCAR-5 ovarian
OVCAR-8 ovarian = tested on: OVCAR-8 ovarian
PC-3 prostate = tested on: PC-3 prostate
RPMI-8226 leukemia = tested on: RPMI-8226 leukemia
RXF 393 renal = tested on: RXF 393 renal
SF-268 CNS = tested on: SF-268 CNS
SF-295 CNS = tested on: SF-295 CNS
SF-539 CNS = tested on: SF-539 CNS
SK-MEL-2 melanoma = tested on: SK-MEL-2 melanoma
SK-MEL-28 melanoma = tested on: SK-MEL-28 melanoma
SK-MEL-5 melanoma = tested on: SK-MEL-5 melanoma
SK-OV-3 ovarian = tested on: SK-OV-3 ovarian
SN12C renal = tested on: SN12C renal
SNB-19 CNS = tested on: SNB-19 CNS
SNB-75 CNS = tested on: SNB-75 CNS
SR leukemia = tested on: SR leukemia
SW-620 colon = tested on: SW-620 colon
T-47D breast = tested on: T-47D breast
TK-10 renal = tested on: TK-10 renal
U251 CNS = tested on: U251 CNS
UACC-257 melanoma = tested on: UACC-257 melanoma
UACC-62 melanoma = tested on: UACC-62 melanoma
UO-31 renal = tested on: UO-31 renal

## CCN(CC)CCNc1cc(-c2cccc(OC(F)(F)F)c2)nc2ccc(N3CCCC3)cc12
786-0 renal
  GI50: 1660 nM and 1670 nM and 1590 nM
  TGI: 3190 nM and 3230 nM
A498 renal
  GI50: 1610 nM and 1820 nM and 3420 nM
  TGI: 6150 nM and 3440 nM and 14900 nM
A549 NSCLC
  GI50: 1710 nM and 1730 nM and 2550 nM
  TGI: 3350 nM and 3290 nM and 7300 nM
ACHN renal
  GI50: 1530 nM and 1680 nM and 1920 nM
  TGI: 2900 nM and 3280 nM and 3930 nM
BT-549 breast
  GI50: 1600 nM and 1830 nM and 1850 nM
  TGI: 3110 nM and 3470 nM and 3570 nM
CAKI-1 renal
  GI50: 1580 nM and 1410 nM and 3080 nM
  TGI: 3290 nM and 2760 nM and 11500 nM
CCRF-CEM leukemia
  GI50: 1570 nM and 2190 nM and 2800 nM
  TGI: 4200 nM and 6840 nM and 10400 nM
COLO 205 colon
  GI50: 1450 nM and 1690 nM
  TGI: 2910 nM and 3240 nM
DU-145 prostate
  GI50: 1850 nM and 2360 nM and 3590 nM
  TGI: 4100 nM and 5440 nM and 12800 nM
EKVX NSCLC
  GI50: 2140 nM and 2290 nM and 2490 nM
  TGI: 5820 nM and 6240 nM and 8910 nM
HCC-2998 colon
  GI50: 1340 nM and 1280 nM and 1900 nM
  TGI: 2720 nM and 2600 nM and 4060 nM
HCT-116 colon
  GI50: 1240 nM and 1260 nM and 1540 nM
  TGI: 2520 nM and 2720 nM and 3050 nM
HCT-15 colon
  GI50: 1460 nM and 1380 nM and 1730 nM
  TGI: 3170 nM and 2840 nM and 3710 nM
HL-60(TB) leukemia
  GI50: 1660 nM and 714 nM and 2000 nM
  TGI: 3650 nM and 3010 nM and 4120 nM
HOP-62 NSCLC
  GI50: 1520 nM and 1750 nM and 1880 nM
  TGI: 2960 nM and 3240 nM and 4000 nM
HOP-92 NSCLC
  GI50: 1170 nM and 1340 nM and 1510 nM
  TGI: 2840 nM and 3090 nM and 4680 nM
HS 578T breast
  GI50: 1590 nM and 1870 nM and 2780 nM
  TGI: 3520 nM and 4040 nM and 13000 nM
HT29 colon
  GI50: 1700 nM and 1600 nM and 1760 nM
  TGI: 3470 nM and 3330 nM and 3730 nM
IGROV1 ovarian
  GI50: 1340 nM and 1410 nM and 1460 nM
  TGI: 2870 nM and 3040 nM and 3050 nM
K-562 leukemia
  GI50: 1360 nM and 1800 nM and 2180 nM
  TGI: 6140 nM and 5090 nM and 5010 nM
KM12 colon
  GI50: 1710 nM and 1700 nM and 1850 nM
  TGI: 3510 nM and 3390 nM and 3770 nM
LOX IMVI melanoma
  GI50: 1560 nM and 1390 nM and 1730 nM
  TGI: 2960 nM and 2730 nM and 3190 nM
M14 melanoma
  GI50: 1600 nM and 1820 nM and 1860 nM
  TGI: 3120 nM and 3510 nM and 3630 nM
MALME-3M melanoma
  GI50: 1720 nM and 2010 nM and 1690 nM
  TGI: 3340 nM and 3760 nM and 3170 nM
MCF7 breast
  GI50: 1640 nM and 1450 nM and 1760 nM
  TGI: 3440 nM and 2900 nM and 3620 nM
MDA-MB-231 breast
  GI50: 1680 nM and 1650 nM and 1500 nM
  TGI: 3270 nM and 3310 nM and 3130 nM
MDA-MB-435
  GI50: 1470 nM and 1430 nM and 1740 nM
  TGI: 2830 nM and 2850 nM and 3300 nM
MOLT-4 leukemia
  GI50: 1840 nM and 1920 nM and 2080 nM
  TGI: 4700 nM and 4920 nM and 6080 nM
NCI-H226 lung
  GI50: 2080 nM and 1760 nM and 2790 nM
  TGI: 4260 nM and 3450 nM and 8020 nM
NCI-H23 lung
  GI50: 1820 nM and 1870 nM and 1890 nM
  TGI: 3650 nM and 3720 nM
NCI-H460 lung
  GI50: 1620 nM and 1700 nM
  TGI: 3270 nM and 3470 nM
NCI-H522 lung
  GI50: 1880 nM and 1640 nM and 1920 nM
  TGI: 3630 nM and 3240 nM and 4000 nM
NCI/ADR-RES ovarian
  GI50: 1650 nM and 1720 nM and 2180 nM
  TGI: 3190 nM and 3300 nM and 4530 nM
OVCAR-3 ovarian
  GI50: 1820 nM and 1830 nM and 1900 nM
  TGI: 4110 nM and 3770 nM and 4410 nM
OVCAR-4 ovarian
  GI50: 2140 nM and 1620 nM and 3110 nM
  TGI: 7860 nM and 3670 nM and 12900 nM
OVCAR-5 ovarian
  GI50: 1940 nM and 2240 nM
  TGI: 3930 nM and 3830 nM and 6120 nM
OVCAR-8 ovarian
  GI50: 1940 nM and 1760 nM and 1990 nM
  TGI: 4040 nM and 3360 nM and 4240 nM
PC-3 prostate
  GI50: 1370 nM and 1570 nM and 1810 nM
  TGI: 2760 nM and 3100 nM and 3810 nM
RPMI-8226 leukemia
  GI50: 1350 nM and 1600 nM and 1690 nM
  TGI: 3540 nM and 3940 nM and 4220 nM
RXF 393 renal
  GI50: 1510 nM and 1500 nM and 1700 nM
  TGI: 3030 nM and 3090 nM and 4020 nM
SF-268 CNS
  GI50: 1980 nM and 1920 nM and 2230 nM
  TGI: 4180 nM and 3960 nM and 5890 nM
SF-295 CNS
  GI50: 1630 nM and 1730 nM and 1920 nM
  TGI: 3230 nM and 3360 nM and 3790 nM
SF-539 CNS
  GI50: 1680 nM and 1740 nM and 1790 nM
  TGI: 3200 nM and 3320 nM and 3360 nM
SK-MEL-2 melanoma
  GI50: 1610 nM and 1870 nM and 1900 nM
  TGI: 3300 nM and 3490 nM and 3610 nM
SK-MEL-28 melanoma
  GI50: 1660 nM and 1900 nM and 1740 nM
  TGI: 3160 nM and 3380 nM and 3170 nM
SK-MEL-5 melanoma
  GI50: 1630 nM and 1910 nM and 1700 nM
  TGI: 2990 nM and 3350 nM and 3170 nM
SK-OV-3 ovarian
  GI50: 1690 nM and 1880 nM and 3010 nM
  TGI: 3630 nM and 3660 nM and 9590 nM
SN12C renal
  GI50: 1690 nM and 1530 nM and 1890 nM
  TGI: 3370 nM and 2980 nM and 3860 nM
SNB-19 CNS
  GI50: 1750 nM and 1840 nM and 1980 nM
  TGI: 3400 nM and 3310 nM and 3800 nM
SNB-75 CNS
  GI50: 1790 nM and 1740 nM
  TGI: 4290 nM and 5780 nM
SR leukemia
  GI50: 418 nM and 462 nM
  TGI: 2120 nM and 2260 nM
SW-620 colon
  GI50: 1670 nM and 1860 nM and 2010 nM
  TGI: 3250 nM and 3790 nM and 4360 nM
T-47D breast
  GI50: 1780 nM and 2120 nM
  TGI: 4040 nM and 4320 nM
TK-10 renal
  GI50: 2060 nM and 1870 nM and 2310 nM
  TGI: 4500 nM and 3490 nM and 5730 nM
U251 CNS
  GI50: 1540 nM and 1550 nM and 1710 nM
  TGI: 3100 nM and 2950 nM and 3350 nM
UACC-257 melanoma
  GI50: 1810 nM and 1760 nM
  TGI: 3510 nM and 3320 nM and 3600 nM
UACC-62 melanoma
  GI50: 1810 nM and 1820 nM and 1790 nM
  TGI: 3470 nM and 3280 nM and 3510 nM
UO-31 renal
  GI50: 1230 nM and 1350 nM and 1460 nM
  TGI: 2500 nM and 2690 nM and 2990 nM
